# From the supplement of paper PMC4862054
# “And” between values parts separate entries of the source, which are not always exact repeats. Identical values can stand only once.
# Assays:
# MDA-MB-468 [1] = details: 72 h
# How it was run: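 A 20 µl suspension of breast cancer cells was placed in 384-well plates that already contained compound at 5 concentrations in 10-fold steps across a compound-specific 10,000-fold range, and the plates were left for 72 h. CellTox Green fluorescence at 485/520 nm gave cell death, and CellTiter-Glo luminescence, read after 10 min at room temperature, gave viability. Each plate was normalised to 0.1 % DMSO and a positive kill control. EC50 was fitted from the curves and censored at the top concentration.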
# HDQ-P1 [2] = experiment: drug sensitivity score (DSS), CellTiter-Blue viability (DSS (AUC-based score)); higher = stronger viability inhibition; extreme values may be limits of the assay; details: incubation time: 72 h
# Protocol: (§1)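 DSRT with the CellTiter-Blue (resazurin reduction) viability readout, fluorescence 560/590 nm, 72 h incubation. Plates were normalised to DMSO and benzethonium chloride controls. DSS is computed from the area under the fitted dose-response curve (5 or 9 concentrations).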
# BT-549 [3] = experiment: as above; details: incubation time: 72 h
# Protocol: as §1
# BT-474 = experiment: as above; details: incubation time: 72 h
# Protocol: as §1
# HCC1143 [4] = experiment: as above; details: incubation time: 72 h
# Protocol: as §1
# CAL-148 [5] = experiment: as above; details: incubation time: 72 h
# Protocol: as §1
# DU-4475 [6] = experiment: as above; details: incubation time: 72 h
# Protocol: as §1
# MFM-223 = experiment: as above; details: incubation time: 72 h
# Protocol: as §1
# CAL-51 [7] = experiment: as above; details: incubation time: 72 h
# Protocol: as §1
# MDA-MB-436 = experiment: as above; details: incubation time: 72 h
# Protocol: as §1
# MDA-MB-231 = experiment: as above; details: incubation time: 72 h
# Protocol: as §1
# Hs578T = experiment: as above; details: incubation time: 72 h
# Protocol: as §1
# MDA-MB-468 [8] = experiment: as above; details: incubation time: 72 h
# Protocol: as §1
# SK-BR-3 [9] = experiment: as above; details: incubation time: 72 h
# Protocol: as §1
# CAL-120 [10] = experiment: as above; details: incubation time: 72 h
# Protocol: as §1
# HDQ-P1 [11] = experiment: drug sensitivity score (DSS), CellTiter-Glo (DSS (AUC-based score)); higher = stronger drug effect (viability inhibition or cytotoxicity); extreme values may be limits of the assay; details: incubation time: 72 h
# How it was run: (§2)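 Breast cancer cell lines (20 µl suspension) were seeded into 384-well plates holding compound at 5 concentrations in 10-fold steps over a compound-specific 10,000-fold range, then incubated 72 h. CellTox Green fluorescence (485/520 nm) was read first, then CellTiter-Glo luminescence after 10 min at room temperature. Each plate was normalised to 0.1 % DMSO and a positive kill control. The drug sensitivity score was calculated from the area under the fitted dose-response curve.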
# BT-549 [12] = experiment: as above; details: incubation time: 72 h
# How it was run: as §2
# HCC1143 [13] = experiment: as above; details: incubation time: 72 h
# How it was run: as §2
# HCC1937 = experiment: as above; details: incubation time: 72 h
# How it was run: as §2
# CAL-148 [14] = experiment: as above; details: incubation time: 72 h
# How it was run: as §2
# DU-4475 [15] = experiment: as above; details: incubation time: 72 h
# How it was run: as §2
# CAL-51 [16] = experiment: as above; details: incubation time: 72 h
# How it was run: as §2
# SK-BR-3 [17] = experiment: as above; details: incubation time: 72 h
# How it was run: as §2
# MDA-MB-453 = experiment: as above; details: incubation time: 72 h
# How it was run: as §2
# CAL-120 [18] = experiment: as above; details: incubation time: 72 h
# How it was run: as §2
"EC50, CellTiter-Glo (MDA-MB-468 [1])",Structure (SMILES),drug sensitivity score (HDQ-P1 [2]),drug sensitivity score (BT-549 [3]),drug sensitivity score (BT-474),drug sensitivity score (HCC1143 [4]),drug sensitivity score (CAL-148 [5]),drug sensitivity score (DU-4475 [6]),drug sensitivity score (MFM-223),drug sensitivity score (CAL-51 [7]),drug sensitivity score (MDA-MB-436),drug sensitivity score (MDA-MB-231),drug sensitivity score (Hs578T),drug sensitivity score (MDA-MB-468 [8]),drug sensitivity score (SK-BR-3 [9]),drug sensitivity score (CAL-120 [10]),drug sensitivity score (HDQ-P1 [11]),drug sensitivity score (BT-549 [12]),drug sensitivity score (HCC1143 [13]),drug sensitivity score (HCC1937),drug sensitivity score (CAL-148 [14]),drug sensitivity score (DU-4475 [15]),drug sensitivity score (CAL-51 [16]),drug sensitivity score (SK-BR-3 [17]),drug sensitivity score (MDA-MB-453),drug sensitivity score (CAL-120 [18])
2270 nM,N#Cc1ccc(COC[C@H]2O[C@@H](n3c(NCc4ccc(Cl)c(Cl)c4)nc4c(N)ncnc43)[C@H](O)[C@@H]2O)cc1,0,4.23,0,0,0,1.33,0,0,4.85,4.35,0,1.65,1.46,0,1.31,3.44,1.09,3.1,0,2.77,0,2.28,0,0
6650 nM,COc1cc(OC2CCN(C)CC2)ccc1Nc1ncc2c(n1)n(C1CCCC1)c(=O)n2C [AZ 3146],0,0,0,0,4.7,1.56,0,8.18,0,3.65,0,0,2.13,0.478,0,0,0,0,0,0,5.98,4.5,0,0.593
410 nM,O=C(/C=C/c1cccc(S(=O)(=O)Nc2ccccc2)c1)NO [Belinostat],11.8,8.08,11.8,10.3,17.1,15,12.7,10.6,12.2,12.5,8.1,8.06,19,19,8.05,9.61,11.6,7.92,16.1,15.9,18.6,18.3,20.4,13.1
2800 nM,COc1cc2ncnc(Nc3ccc(F)c(Cl)c3)c2cc1OCCCN1CCOCC1 [Gefitinib],,2.48 and 0.865,9.05 and 8.8,0,2.15 and 4.81,0,0,0,0,,,9.52 and 7.51,6.49 and 10.4,,7.21,0,0,2.45,2.08,0,0,10.1,0,0
230 nM,NC(=O)c1ccc(I)c([N+](=O)[O-])c1 [Iniparib],0,0,0,0,0,0,0,0,0,0,0,0,0,1.19,0,0,0,0,0,0,0,0,0,0
1620 nM,CCc1c2c(nc3ccc(OC(=O)N4CCC(N5CCCCC5)CC4)cc13)-c1cc3c(c(=O)n1C2)COC(=O)[C@]3(O)CC [Irinotecan],,,0,,9.3 and 7.24,7.9 and 5.68,,6.14 and 4.1,,,0,6.9 and 5.16,6.6 and 2.45,5.49 and 3.99,0,4,0,0,7.67,4.98,3.68,4.28,0,2.72
2290 nM,Cc1ccc(NC(=O)c2ccc(CN3CCN(C)CC3)cc2)cc1Nc1nc(-c2cccnc2)cs1 [Masitinib],0,0,0,0,0,0,0,0,0.552,0,0,0,2.27,0,0.939,3.23,0,0.648,0,0,4.22,1.79,3.95,0
2500 nM,O=C(Nc1cccnc1)N1CCC(Cc2cccc(Oc3ccc(C(F)(F)F)cn3)c2)CC1 [PF-3845],0,4.79,1.39,0,0,0,0,0.908,0,0,0.892,0.694,0,0,0,1.34,0,0,0,0,2.47,0,0,0.24
39 nM,Cc1[nH]c2ccccc2c1CCNCc1ccc(/C=C/C(=O)NO)cc1 [Panobinostat],14,9.07,17.5,16.3,22.1,20,14.6,15,9.42,16.5,17.6,11.3,23,22.2,8.41,11.1,15.1,9.22,20,19.2,17.2,22.3,23.5,12.9
6340 nM,CNC(=O)c1cc(Oc2ccc(NC(=O)Nc3ccc(Cl)c(C(F)(F)F)c3)c(F)c2)ccn1 [Regorafenib],0,1.64,1.39,9.31,0,3.68,9.2,3.37,0,8.54,2.98,1.71,0,1.05,2.22,1.23,0,1.28,0.856,1.79,5.7,1.17,2.37,1.79
0.33 nM,CO[C@H]1C[C@@H]2CC[C@@H](C)[C@@](O)(O2)C(=O)C(=O)N2CCCC[C@H]2C(=O)O[C@H]([C@H](C)C[C@@H]2CC[C@@H](OP(C)(C)=O)[C@H](OC)C2)CC(=O)[C@H](C)/C=C(\C)[C@@H](O)[C@@H](OC)C(=O)[C@H](C)C[C@H](C)/C=C/C=C/C=C/1C [Ridaforolimus],7.08,17.6,14.5,16.3,25,16.7,22.1,22,1.25,2.74,19.1,16.7,16.8,19.1,2.99,12.4,8.23,7.76,7.53,4.31,8.46,10.4,8.14,8.4
2280 nM,c1ccc2c(CCNc3ccc(Nc4ccncc4)cc3)c[nH]c2c1 [Serdemetan],0,6.96,0,0,4.36,3.86,0,1.53,8.76,0,2.84,0,0,0,2.35,6.83,0,3.14,7.11,7.09,15.9,6.23,1.37,0
2050 nM,COc1cc2c(NC3CCN(C(C)C)CC3)nc(N3CCC(F)(F)CC3)nc2cc1OCCCN1CCCC1 [UNC0642],,,,,,,,,,,,,,,0.93,0,0,1.97,3.63,0,0,2.71,5.58,0

Structure (SMILES),"EC50, CellTiter-Glo (MDA-MB-468 [1])",drug sensitivity score (HDQ-P1 [2]),drug sensitivity score (BT-549 [3]),drug sensitivity score (BT-474),drug sensitivity score (HCC1143 [4]),drug sensitivity score (CAL-148 [5]),drug sensitivity score (DU-4475 [6]),drug sensitivity score (MFM-223),drug sensitivity score (CAL-51 [7]),drug sensitivity score (MDA-MB-436),drug sensitivity score (MDA-MB-231),drug sensitivity score (Hs578T),drug sensitivity score (MDA-MB-468 [8]),drug sensitivity score (SK-BR-3 [9]),drug sensitivity score (CAL-120 [10]),drug sensitivity score (HDQ-P1 [11]),drug sensitivity score (BT-549 [12]),drug sensitivity score (HCC1143 [13]),drug sensitivity score (HCC1937),drug sensitivity score (CAL-148 [14]),drug sensitivity score (DU-4475 [15]),drug sensitivity score (CAL-51 [16]),drug sensitivity score (SK-BR-3 [17]),drug sensitivity score (MDA-MB-453),drug sensitivity score (CAL-120 [18])
O=C(Nc1ccncc1)C(=O)c1cn(Cc2ccc(Cl)cc2)c2ccccc12 [Indibulin],273 nM,12.5,16.6,18.3,16.4,2.12,7.93,5.75,10.8,8.9,20.7,11.3,15.3,25.9,22.2,3.33,12.6,5.89,3.81,0,1.15,19.4,12.8,6.57,6.2
